What all share (format): cell-based, mouse
Experiment [1] has as its system α7 integrin (LacZ reporter in α7βgal+/− myoblasts). Nature of the experiment: Myoblast α7+/LacZ integrin FDG assay (Burkin assay in myoblasts, 96-well). The following applies: α7+/LacZ myoblasts, 96-well.
Experiment [2] has as its system α7 integrin (LacZ reporter in α7+/LacZ myotubes). The experiment in a line: Myotube α7 integrin FDG assay (Burkin assay in myotubes, 96-well). The following applies: myotubes.
Experiment [3] deals with β-galactosidase in CMV-LacZ C2C12 myoblasts. The experiment in a line: CMV-LacZ secondary screen in C2C12 myoblasts (β-Gal stabilizing assay). As to conditions: CMV-LacZ C2C12 myoblasts. The method, boiled down:
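First, C2C12 myoblasts were transfected with a linearized CMV-LACZ vector and clonal lines selected by FDG β-gal assay. Then cells were exposed to compounds at 0.5, 1, 5, 10, 20 and 40 μM in 96-well format, two replicates each, and β-gal measured.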

Experiment [4] deals with β-galactosidase in CMV-LacZ C2C12 myotubes. Nature of the experiment: CMV-LacZ secondary screen in C2C12 myotubes (β-Gal stabilizing assay). The following applies: C2C12 CMV-LacZ myotubes, fold relative to DMSO. The procedure, abridged:
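β-Gal level was the read-out, measured in a clonal C2C12 line expressing LacZ from a CMV promoter. Dose-response curves used six concentrations, 0.5 μM up to 40 μM, with duplicate points.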

Turning to `Cn1cc(CN2CCC(C(=O)Nc3cccc(-c4cscn4)c3)CC2)cn1` [MLS001105912-01], the “Burkin Assay in Myoblasts, signal relative to DMSO” value in experiment [1] (0.5 uM) is listed as 1.162; in experiment [1] (1 uM) it was 1.057; in experiment [1] (5 uM), 1.029; in experiment [1] (10 uM) it was 1.246; in experiment [1] (20 uM) it was 0.6025; in experiment [1] (40 uM), 0.4631. The “Burkin Assay in Myotubes, α7 integrin LacZ reporter signal relative to DMSO” value in experiment [2] (0.5 uM) amounted to 0.9483; in experiment [2] (1 uM) it was 1.061; in experiment [2] (5 uM) it was 0.9467; in experiment [2] (10 uM) it was 1.1322; in experiment [2] (20 uM) it was 0.8299; in experiment [2] (40 uM), 1.003. Besides, the “CMV-LACZ in Myoblasts (β-galactosidase activity relative to DMSO)” value in experiment [3] (0.5 uM) is reported as 1.0725; in experiment [3] (1 uM), 1.0321; in experiment [3] (5 uM), 1.0003; in experiment [3] (10 uM), 0.9597; in experiment [3] (20 uM), 0.5323; in experiment [3] (40 uM) it was 0.3873. For the same compound, the “CMV-LACZ in Myotubes, signal relative to DMSO” value in experiment [4] (0.5 uM) is on record as 1.1391; in experiment [4] (1 uM), 0.9618; in experiment [4] (5 uM) it was 0.9313; in experiment [4] (10 uM), 1.0857; in experiment [4] (20 uM), 1.1910; in experiment [4] (40 uM) it was 1.8130.

Consider `O=C(CCc1ccccc1)c1nnc(-c2ccccc2)o1` [MLS001004364-01], for which the “Burkin Assay in Myoblasts, signal relative to DMSO” value is 1.0917 in experiment [1] (0.5 uM); 1.105 in experiment [1] (1 uM); 1.035 in experiment [1] (5 uM); 0.9531 in experiment [1] (10 uM); 0.9729 in experiment [1] (20 uM); 0.9374 in experiment [1] (40 uM). Also, the “Burkin Assay in Myotubes, α7 integrin LacZ reporter signal relative to DMSO” value in experiment [2] (0.5 uM) turned out to be 1.093; in experiment [2] (1 uM) it was 1.105; in experiment [2] (5 uM), 0.9047; in experiment [2] (10 uM) it was 0.8617; in experiment [2] (20 uM) it was 0.8875; in experiment [2] (40 uM) it was 1.055. The “CMV-LACZ in Myoblasts (β-galactosidase activity relative to DMSO)” value in experiment [3] (0.5 uM) worked out at 0.9117; in experiment [3] (1 uM) it was 1.0643; in experiment [3] (5 uM) it was 1.0438; in experiment [3] (10 uM) it was 0.9011; in experiment [3] (20 uM) it was 1.0263; in experiment [3] (40 uM), 1.0441. Besides, the “CMV-LACZ in Myotubes, signal relative to DMSO” value in experiment [4] (0.5 uM) is reported as 0.9210; in experiment [4] (1 uM), 1.0095; in experiment [4] (5 uM) it was 0.8978; in experiment [4] (10 uM) it was 0.9480; in experiment [4] (20 uM), 1.2824; in experiment [4] (40 uM) it was 1.1824.

Consider `CCCCNc1nnc(Cc2ccc(Cl)cc2)c(=O)[nH]1` [MLS001215795-01], for which the “Burkin Assay in Myoblasts, signal relative to DMSO” value is 1.143 in experiment [1] (0.5 uM); 1.207 in experiment [1] (1 uM); 0.932 in experiment [1] (5 uM); 0.7776 in experiment [1] (10 uM); 0.741 in experiment [1] (20 uM); 0.7187 in experiment [1] (40 uM). In addition, the “Burkin Assay in Myotubes, α7 integrin LacZ reporter signal relative to DMSO” value worked out at 1.291 in experiment [2] (0.5 uM); 1.191 in experiment [2] (1 uM); 0.863 in experiment [2] (5 uM); 0.9107 in experiment [2] (10 uM); 0.9147 in experiment [2] (20 uM); 0.8873 in experiment [2] (40 uM). The “CMV-LACZ in Myoblasts (β-galactosidase activity relative to DMSO)” value in experiment [3] (0.5 uM) turned out to be 0.8003; in experiment [3] (1 uM), 1.1375; in experiment [3] (5 uM), 1.0974; in experiment [3] (10 uM), 0.8628; in experiment [3] (20 uM), 0.8196; in experiment [3] (40 uM), 0.8256. Further, the “CMV-LACZ in Myotubes, signal relative to DMSO” value is 0.9363 in experiment [4] (0.5 uM); 1.0207 in experiment [4] (1 uM); 0.9309 in experiment [4] (5 uM); 1.0250 in experiment [4] (10 uM); 1.3929 in experiment [4] (20 uM); 1.1035 in experiment [4] (40 uM).

With `Cc1ccc(N2C(=O)C3NN=C(C(=O)OCc4ccccc4)C3C2=O)cc1` (stereo not drawn) [MLS000588210-01], the “Burkin Assay in Myoblasts, signal relative to DMSO” value worked out at 1.055 in experiment [1] (0.5 uM); 0.9707 in experiment [1] (1 uM); 0.9002 in experiment [1] (5 uM); 0.9816 in experiment [1] (10 uM); 1.136 in experiment [1] (20 uM); 0.9611 in experiment [1] (40 uM). Further, the “Burkin Assay in Myotubes, α7 integrin LacZ reporter signal relative to DMSO” value in experiment [2] (0.5 uM) came to 0.9425; in experiment [2] (1 uM) it was 0.9559; in experiment [2] (5 uM), 0.9466; in experiment [2] (10 uM), 0.9155; in experiment [2] (20 uM) it was 0.9763; in experiment [2] (40 uM) it was 0.9565. Further, the “CMV-LACZ in Myoblasts (β-galactosidase activity relative to DMSO)” value in experiment [3] (0.5 uM) was 1.2908; in experiment [3] (1 uM), 0.9782; in experiment [3] (5 uM), 0.7808; in experiment [3] (10 uM), 0.9316; in experiment [3] (20 uM) it was 1.0307; in experiment [3] (40 uM), 0.9000. In addition, the “CMV-LACZ in Myotubes, signal relative to DMSO” value is given as 1.1263 in experiment [4] (0.5 uM); 1.0853 in experiment [4] (1 uM); 0.9182 in experiment [4] (5 uM); 1.0815 in experiment [4] (10 uM); 1.1322 in experiment [4] (20 uM); 1.1656 in experiment [4] (40 uM).

`O=C(Nc1ccccc1OC(=O)c1ccc(Cl)cc1)c1ccc(Cl)cc1` [MLS000573208-01]: the “Burkin Assay in Myoblasts, signal relative to DMSO” value in experiment [1] (0.5 uM) is 1.031; in experiment [1] (1 uM), 1.015; in experiment [1] (5 uM), 0.9523; in experiment [1] (10 uM) it was 0.8121; in experiment [1] (20 uM) it was 1.632; in experiment [1] (40 uM) it was 0.6235. Besides, the “Burkin Assay in Myotubes, α7 integrin LacZ reporter signal relative to DMSO” value in experiment [2] (0.5 uM) is listed as 0.9453; in experiment [2] (1 uM), 1.007; in experiment [2] (5 uM), 0.98; in experiment [2] (10 uM), 1.045; in experiment [2] (20 uM) it was 0.8239; in experiment [2] (40 uM) it was 0.5966. The “CMV-LACZ in Myoblasts (β-galactosidase activity relative to DMSO)” value in experiment [3] (0.5 uM) came to 1.0197; in experiment [3] (1 uM), 0.9594; in experiment [3] (5 uM), 1.1030; in experiment [3] (10 uM) it was 0.8678; in experiment [3] (20 uM), 0.6626; in experiment [3] (40 uM), 0.9289. The “CMV-LACZ in Myotubes, signal relative to DMSO” value in experiment [4] (0.5 uM) amounted to 0.9547; in experiment [4] (1 uM), 1.3021; in experiment [4] (5 uM) it was 1.1765; in experiment [4] (10 uM) it was 0.8913; in experiment [4] (20 uM), 0.9633; in experiment [4] (40 uM), 0.9478.

Source of the values: US9980943B2, “Methods of treating muscular dystrophy” (BOARD OF REGENTS OF THE NEVADA SYSTEM OF HIGHER EDUCATION, …, priority 2013, dated 2018).
